“And” between values parts separate entries of the source, which are not always exact repeats. Identical values can stand only once. Like-named read-outs stand apart in the source and are kept apart here.
Tests used:
[1] = cited from earlier work
[2] = test system: patients with advanced solid tumors; assay: cardiac adverse events in the QT evaluation study; format: in vivo, human
Procedure: Cardiac adverse events (AEs) observed in the period of this QT evaluation study were evaluated and graded according to the National Cancer Institute Common Terminology Criteria for Adverse Events (NCI-CTCAE), v.4 and coded using the Medical Dictionary for Regulatory Activities (MedDRA) v.16.0. Laboratory results of particular relevance (i.e., changes in albumin, calcium, potassium, or magnesium) were graded according to the NCI-CTCAE v.4.

telemetered dogs = test system: telemetered dogs; design: method as in data on file; conditions: single i.v. bolus at maximum tolerated dose, ref data on file; cited from earlier work
cytochrome P450 (CYP) 3A = test system: cytochrome P450 (CYP) 3A; design: method as in data on file; conditions: in vitro studies; ref data on file; cited from earlier work
[3] = lurbinectedin plasma pharmacokinetics in the QT evaluation study; format: in vivo, human
Procedure: In cycle 1 and cycle 2, the following triplicate ECGs were collected 5–10 min before their time-matched PK time points: 5 min before end of the lurbinectedin infusion (EOI), 30 min, 1, 3, 24, 72 (only on cycle 1), and 168 h after EOI.
Pharmacokinetic (PK) profiles of lurbinectedin were obtained on cycle 1 and cycle 2. Following ECGs’ acquisition, blood samples were collected into K3EDTA tubes. Tubes were gently inverted several times and centrifuged at 2000 × g for 10 min at 4 °C to separate the plasma.
Plasma concentrations of lurbinectedin were measured by a validated liquid chromatography–mass spectrometry assay (Dynakin S.L., Spain), with ranges of 0.1–50 µg/L. The within- and between-day precisions ranged from 2.7 to 12.9% and from 5.1 to 10.7%, respectively. The within- and between-day accuracy (bias) ranged from 10 to 12% and from 5 to 6%, respectively.
Datasets were prepared using SAS Enterprise Guide v.7.11 HF3 (SAS Institute Inc., Cary, NC, USA). Non-compartmental PK parameters were determined using Phoenix WinNonlin v.6.3 (Certara, USA). Non-linear mixed-effect modelling was performed in NONMEM v.7.3.0 (GloboMax LLC, Hanover, MD, USA). Graphical and all other statistical analyses were performed in R v.3.2.5 (R Foundation for Statistical Computing, Vienna, Austria).

oncogenic transcription = test system: oncogenic transcription; design: method as in PMID 20977459; conditions: cited from earlier work
patients [4] = assay: clinical toxicity of lurbinectedin as a single agent; format: in vivo, human; conditions: to date
patients [5] = test system: patients; design: method as in PMID 24563480; conditions: cited from earlier work
cynomolgus monkeys = test system: cynomolgus monkeys; design: method as in data on file; conditions: single i.v. bolus at maximum tolerated dose, ref data on file; cited from earlier work

Structure (SMILES): COc1ccc2[nH]c3c(c2c1)CCN[C@]31CS[C@@H]2c3c(OC(C)=O)c(C)c4c(c3[C@H](COC1=O)N1[C@@H]2[C@H]2c3c(cc(C)c(OC)c3O)C[C@@H]([C@@H]1O)N2C)OCO4 [lurbinectedin, Lurbinectedin]
- population estimate for total plasma clearance ([1]; 1-h i.v. infusion, cancer patients): 11.2 L/h
- extraction ratio [1]: 0.19
- inter-individual variability of all PK parameters [1]: 20.9 to 51.2%
- population estimate of apparent volume at steady state [1]: 438 L and 438.4 L
- reduction of clearance ([1]; co-administration of CYP3A inhibitors): 30%
- blood CL ([1]; corresponding to plasma clearance): ~ 17 L/h
- reduction of clearance ([1]; high C-reactive protein): 20%
- reduction of clearance ([1]; high α-1-acid glycoprotein): 28%
- reduction of clearance ([1]; low albumin): 20%
- cardiac safety findings ([2]; QT evaluation study period): No relevant cardiac safety findings
- adverse events suggestive of proarrhythmic potential ([2]; in vivo): No adverse events suggestive of proarrythmic potential
- cardiovascular changes (telemetered dogs): mild decreases in blood pressure and increased heart rate
- effects on lead II ECG variables (PR, QT, QTcF, QTcV, QRS), ECG gross morphology, cardiac rhythm (telemetered dogs): No effects were observed
- role of metabolism by CYP3A in clearance (cytochrome P450 (CYP) 3A): major clearance mechanism
- observed lurbinectedin concentration, mean (Stdv) ([3]; Cycle 1, 0.92 h after start of infusion (Cmax)): 106.02 (54.52) µg/L
- observed lurbinectedin concentration, mean (Stdv) ([3]; Cycle 1, 1.5 h after start of infusion): 40.01 (24.35) µg/L
- observed lurbinectedin concentration, mean (Stdv) ([3]; Cycle 1, 2 h after start of infusion): 27.22 (14.05) µg/L
- observed lurbinectedin concentration, mean (Stdv) ([3]; Cycle 1, 4 h after start of infusion): 17.86 (8.07) µg/L
- observed lurbinectedin concentration, mean (Stdv) ([3]; Cycle 1, 25 h after start of infusion): 3.84 (1.87) µg/L
- observed lurbinectedin concentration, mean (Stdv) ([3]; Cycle 1, 73 h after start of infusion): 1.53 (1.13) µg/L
- observed lurbinectedin concentration, mean (Stdv) ([3]; Cycle 1, 169 h after start of infusion): 0.51 (0.45) µg/L
- observed lurbinectedin concentration, mean (Stdv) ([3]; Cycle 2, 0.92 h after start of infusion (Cmax)): 136.60 (145.04) µg/L
- observed lurbinectedin concentration, mean (Stdv) ([3]; Cycle 2, 2 h after start of infusion): 28.22 (16.84) µg/L
- observed lurbinectedin concentration, mean (Stdv) ([3]; Cycle 2, 4 h after start of infusion): 18.82 (10.94) µg/L
- observed lurbinectedin concentration, mean (Stdv) ([3]; Cycle 2, 169 h after start of infusion): 0.56 (0.57) µg/L
- Tmax ([3]; cycle 1): 0.92 h
- mean clearance (non-compartmental) ([3]; cycle 1, 39 patients): 11.8 L/h
- mean volume of distribution (non-compartmental) ([3]; cycle 1, 39 patients): 347.7 L
- Tmax ([3]; cycle 2): 4 h
- in vitro activity (oncogenic transcription): low nanomolar range
- cardiac toxicity concerns (patients [4]): no cardiac toxicity concerns
- most common limiting toxicity (patients [5]): myelosuppression, particularly neutropenia
- cardiovascular changes (cynomolgus monkeys): mild decreases in blood pressure and increased heart rate
- effects on lead II ECG variables (PR, QT, QTcF, QTcV, QRS), ECG gross morphology, cardiac rhythm (cynomolgus monkeys): No effects were observed

Source: PMC7801313, “Effect of lurbinectedin on the QTc interval in patients with advanced solid tumors: an exposure–response analysis” (Cancer Chemotherapy and Pharmacology, 2020)
